Results from US8017637B2, “Inhibitors of cdc phosphatases” (Ipsen Pharma S.A.S., priority 2004, dated 2011).

Experiments:
[1] = tested on: Mia-Paca2 lines (human pancreatic cancer cells); assay: Anti-proliferative activity, WST1 colorimetric test, Mia-Paca2 cells; assay type: cell-based; conditions: MIA PaCa-2, 96 hours treatment, up to 10 μM, read-out: IC50 on the cell proliferation of the Mia-Paca2 lines
Method: (§1) ii) Characterization of Anti-Proliferative Activity:
(§2) By way of example, the effect of a treatment by the compounds of the examples described previously on two lines of human Mia-Paca2 and DU145 cells will be studied. The cell lines DU145 (human prostate cancer cells) and Mia-PaCa2 (human pancreatic cancer cells) were acquired from the American Tissue Culture Collection (Rockville, Md., USA). The cells placed in 80 μl of Dulbecco's Modified Eagle medium (Gibco-Brl, Cergy-Pontoise, France) completed with 10% foetal calf serum inactivated by heating (Gibco-Brl, Cergy-Pontoise, France), 50,000 units/l of penicillin and 50 mg/l streptomycin (Gibco-Brl, Cergy-Pontoise, France), and 2 mM of glutamine (Gibco-Brl, Cergy-Pontoise, France) were seeded on a 96-well plate on day 0. The cells were treated on day 1 for 96 hours at increasing concentrations of each of the compounds to be tested up to 10 μM. At the end of the of this period, quantification of the cell proliferation is evaluated by a colorimetric test based on the cleavage of the tetrazolium salt WST1 by the mitochondrial dehydrogenases in the viable cells leading to the formation of formazan (Boehringer Mannheim, Meylan, France). These tests are carried out in duplicate with 8 determinations per concentration tested. For each compound to be tested, the values included in the linear part of the sigmoid were retained for linear regression analysis and used in order to estimate the inhibitory concentration IC50. The products are solubilized in dimethylsulphoxide (DMSO) at to 10^−2M and finally used in culture with 0.1% DMSO.

[2] = tested on: DU-145 lines (human prostate cancer cells); assay: Anti-proliferative activity, WST1 colorimetric test, DU145 cells; assay type: cell-based; conditions: 96 hours treatment, up to 10 μM, read-out: IC50 on the cell proliferation of the DU-145 lines
Method: as §1, §2

[3] = molecular target: T1, purified recombinant enzyme Cdc25-C (MBP-Cdc25C) (Homo sapiens, UniProt P30307); assay: Measurement of the phosphatase activity of the purified recombinant enzyme Cdc25C (OMFP dephosphorylation, fluorescence); assay type: biochemical; conditions: OMFP 500 μM, 4 hours at 30° C.
T1 construct: made in house
T1 sequence (P30307 1-473): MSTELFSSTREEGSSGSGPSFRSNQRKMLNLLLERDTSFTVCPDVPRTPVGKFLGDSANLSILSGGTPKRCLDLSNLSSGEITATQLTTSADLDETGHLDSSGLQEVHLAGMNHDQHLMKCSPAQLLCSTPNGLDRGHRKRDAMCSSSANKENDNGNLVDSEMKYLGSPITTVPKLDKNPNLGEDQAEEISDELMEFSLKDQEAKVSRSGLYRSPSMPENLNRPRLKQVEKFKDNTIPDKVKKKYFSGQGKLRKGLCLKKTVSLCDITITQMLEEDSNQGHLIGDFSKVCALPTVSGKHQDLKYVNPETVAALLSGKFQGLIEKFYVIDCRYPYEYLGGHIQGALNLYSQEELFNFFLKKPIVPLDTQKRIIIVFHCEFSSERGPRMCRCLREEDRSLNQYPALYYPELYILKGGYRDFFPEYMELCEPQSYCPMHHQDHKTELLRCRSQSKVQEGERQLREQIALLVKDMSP
Method: i) Measurement of the Phosphatase Activity of the Purified Recombinant Enzyme Cdc25C
The phosphatase activity of the protein MBP-Cdc25C is evaluated by the dephosphorylation of 3-O-methylfluorescein-phosphate (OMFP) to 3-O-methylfluorescein (OMF) with a determination of the fluorescence at 475 nm of the reaction product. This test makes it possible to identify inhibitors of the recombinant enzyme cdc25. The preparation of the fusion protein MBP-Cdc25C is described in the Patent Application PCT WO 01/44467.
The reaction is carried out in 384-well plate format at a final volume of 50 μl. The protein MBP-Cdc25C (prepared as described above) is preserved in the following elution buffer: 20 mM Tris-HCl pH 7.4; 250 mM NaCl; 1 mM EDTA; 1 mM of dithiothreitol (DTT); 10 mM maltose. It is diluted to a concentration of 60 μM in the following reaction buffer: 50 mM Tris-HCl pH 8.2; 50 mM NaCl; 1 mM DTT; 20% glycerol. Measurement of the background noise is carried out with the buffer without the addition of the enzyme. The products are tested at decreasing concentrations starting from 40 μM. The reaction is initiated by the addition of an OMFP solution at 500 μM final (prepared extemporaneously from a 12.5 mM stock solution in 100% DMSO (Sigma #M2629)). After 4 hours at 30° C. in a single-use 384-well plate, the fluorescence measured at OD 475 nm is read using a Victor^2 plate reader (EGG-Wallac). The determination of the concentration inhibiting the enzyme reaction by 50% is calculated from three independent experiments. Only the values contained in the linear part of the sigmoid are retained for linear regression analysis.

| Structure (SMILES) | IC50 [1] [µM] | IC50 [2] [µM] | IC50 [3] [nM] | melting point [°C] |
| --- | --- | --- | --- | --- |
| Cc1nc2c(s1)C(=O)C(NCCN(C)CCNC1=CC(=O)c3nc(C)sc3C1=O)=CC2=O [Example 6, 6.6′-[(methylimino)bis(ethane-2,1-diylimino)]bis(2-methyl-1,3-benzothiazole-4,7-dione)] | ≤ 10 | ≤ 10 | ≤ 5000 |  |
| Cc1nc2c(s1)C(=O)C(NCCCN(C)CCCNC1=CC(=O)c3nc(-c4cc(F)ccc4F)oc3C1=O)=CC2=O [Example 53, 2-(2,5-difluorophenyl)-6-{[3-(methyl{3-[(2-methyl-4,7-dioxo-4,7-dihydro-1,3-benzothiazol-6-yl)amino]propyl}amino)propyl]amino}-1,3-benzoxazole-4,7-dione] | ≤ 10 | ≤ 10 | ≤ 1000 |  |
| COc1ccc(CNC(=O)c2nc3c(s2)C(=O)C=C(NCCCN(C)CCCNC2=CC(=O)c4sc(C)nc4C2=O)C3=O)cc1 [Example 45, N-(4-methoxybenzyl)-5-{[3-(methyl{3-[(2-methyl-4,7-dioxo-4,7-dihydro-1,3-benzothiazol-5-yl)amino]propyl}amino)propyl]amino}-4,7-dioxo-4,7-dihydro-1,3-benzothiazole-2-carboxamide] | ≤ 10 | ≤ 10 | ≤ 1000 |  |
| CN(CCCNC1=CC(=O)c2sc(C(=O)N3CCN(C(=O)C4CCCO4)CC3)nc2C1=O)CCCNC1=CC(=O)c2sc(C(=O)N3CCN(C(=O)C4CCCO4)CC3)nc2C1=O (stereo not shown) [Example 28, 5.5′-[(methylimino)bis(propane-3,1-diylimino)]bis(2-{[4-(tetrahydrofuran-2-ylcarbonyl)piperazin-1-yl]carbonyl}-1,3-benzothiazole-4,7-dione)] | ≤ 10 |  | ≤ 1000 | 152 to 153 |
| COc1ccc(C(=O)N2CCN(C(=O)c3nc4c(s3)C(=O)C=C(NCCCN(C)CCCNC3=CC(=O)c5sc(C)nc5C3=O)C4=O)CC2)cc1 [Example 48, 2-{[4-(4-methoxybenzoyl)piperazin-1-yl]carbonyl}-5-{[3-(methyl{3-[(2-methyl-4,7-dioxo-4,7-dihydro-1,3-benzothiazol-5-yl)amino]propyl}amino)propyl]amino}-1,3-benzothiazole-4,7-dione] | ≤ 10 | ≤ 10 | ≤ 1000 |  |
| Cc1nc2c(s1)C(=O)C=C(NCCCN(C)CCCNC1=CC(=O)c3nc(-c4cc(F)ccc4F)oc3C1=O)C2=O [Example 51, 2-(2,5-difluorophenyl)-6-{[3-(methyl{3-[(2-methyl-4,7-dioxo-4,7-dihydro-1,3-benzothiazol-5-yl)amino]propyl}amino)propyl]amino}-1,3-benzoxazole-4,7-dione] | ≤ 10 |  | ≤ 1000 |  |
| CN(CCCN(C)C1=CC(=O)c2nc(-c3cc(F)ccc3F)oc2C1=O)CCCN(C)C1=CC(=O)c2nc(-c3cc(F)ccc3F)oc2C1=O [Example 23, 6.6′-{(methylimino)bis[propane-3,1-diyl(methylimino)]}bis[2-(2,5-difluorophenyl)-1,3-benzoxazole-4,7-dione]] |  |  | ≤ 5000 |  |
| Cc1nc2c(s1)C(=O)C=C(NCCCN(C)CCCNC1=CC(=O)c3scnc3C1=O)C2=O [Example 50, 5-({3-[{3-[(4,7-dioxo-4,7-dihydro-1,3-benzothiazol-5-yl)amino]propyl}(methyl)amino]propyl}amino)-2-methyl-1,3-benzothiazole-4,7-dione] | ≤ 10 | ≤ 10 | ≤ 1000 |  |
| COc1ccc2c(c1)CCCN2C(=O)c1nc2c(s1)C(=O)C=C(NCCCN(C)CCCNC1=CC(=O)c3sc(C)nc3C1=O)C2=O [Example 47, 2-[(6-methoxy-3,4-dihydroquinolin-1(2H)-yl)carbonyl]-5-{[3-(methyl{3-[(2-methyl-4,7-dioxo-4,7-dihydro-1,3-benzothiazol-5-yl)amino]propyl}amino)propyl]amino}-1,3-benzothiazole-4,7-dione] |  |  | ≤ 1000 |  |
| Cc1nc2c(s1)C(=O)C=C(NCCOCCNC1=CC(=O)c3sc(C)nc3C1=O)C2=O [Example 3, 5.5′-[oxybis(ethane-2,1-diylimino)]bis(2-methyl-1,3-benzothiazole-4,7-dione)] | ≤ 10 | ≤ 10 | ≤ 1000 |  |

Next, values leading:

| IC50 [1] [µM] | IC50 [2] [µM] | IC50 [3] [nM] | melting point [°C] | Structure (SMILES) |
| --- | --- | --- | --- | --- |
| ≤ 10 | ≤ 10 | ≤ 1000 | 237 to 238 | CN(CCCNC1=CC(=O)c2nc(C(=O)N3CCCC3)sc2C1=O)CCCNC1=CC(=O)c2nc(C(=O)N3CCCC3)sc2C1=O [Example 31, 6.6′-[(methylimino)bis(propane-3,1-diylimino)]bis[2-(pyrrolidin-1-ylcarbonyl)-1,3-benzothiazole-4,7-dione]] |
| ≤ 10 | ≤ 10 | ≤ 1000 | 204 to 205 | CN(CCCNC1=CC(=O)c2nc(-c3ccc(F)cc3)oc2C1=O)CCCNC1=CC(=O)c2nc(-c3ccc(F)cc3)oc2C1=O [Example 15, 6.6′-[(methylimino)bis(propane-3,1-diylimino)]-bis[2-(4-fluorophenyl)-1,3-benzoxazole-4,7-dione]] |
| ≤ 10 |  | ≤ 1000 | 157 to 158 | CN(CCCNC1=CC(=O)c2sc(C(=O)N3CCN(C(=O)N4CCOCC4)CC3)nc2C1=O)CCCNC1=CC(=O)c2sc(C(=O)N3CCN(C(=O)N4CCOCC4)CC3)nc2C1=O [Example 27, 5.5′-[(methylimino)bis(propane-3,1-diylimino)]bis(2-{[4-(morpholin-4-ylcarbonyl)piperazin-1-yl]carbonyl}-1,3-benzothiazole-4,7-dione)] |
| ≤ 10 | ≤ 10 | ≤ 1000 |  | Cc1nc2c(s1)C(=O)C(Br)=C(NCCCN(C)CCCNC1=C(Br)C(=O)c3sc(C)nc3C1=O)C2=O [Example 17, 5.5′-[(methylimino)bis(propane-3,1-diylimino)]bis(6-bromo-2-methyl-1,3-benzothiazole-4,7-dione)] |
| ≤ 10 | ≤ 10 | ≤ 1000 | 209 to 210 | CN(CCCNC1=CC(=O)c2nc(-c3cc(F)ccc3F)oc2C1=O)CCCNC1=CC(=O)c2nc(-c3cc(F)ccc3F)oc2C1=O [Example 8, 6.6′-[(methylimino)bis(propane-3,1-diylimino)]-bis[2-(2,5-difluorophenyl)-1,3-benzoxazole-4,7-dione]] |
| ≤ 10 | ≤ 10 | ≤ 1000 |  | Cc1nc2c(s1)C(=O)C=C(NCCCN(C)CCCNC1=CC(=O)c3nc(C(=O)N4CCCC4)sc3C1=O)C2=O [Example 44, 5-({3-[(3-{[4,7-dioxo-2-(pyrrolidin-1-ylcarbonyl)-4,7-dihydro-1,3-benzothiazol-6-yl]amino}propyl)(methyl)amino]propyl}amino)-2-methyl-1,3-benzothiazole-4,7-dione] |
| ≤ 10 | ≤ 10 | ≤ 1000 |  | Cc1nc2c(s1)C(=O)C=C(NCCCCCNC1=CC(=O)c3sc(C)nc3C1=O)C2=O [Example 4] |
